US20190011433A1, “CELL CO-CULTURE SYSTEMS AND USES THEREOF” (Dana-Farber Cancer Institute, Inc., priority 2007, published 2019)
“Also recorded” adds a separate entry of the source.

Columns and labels:
K562-luc leukemia cells = experiment: CS-BLI drug sensitivity of K562-luc leukemia cells in presence vs absence of HS-5 BMSCs; assay type: cell-based; conditions: presence vs absence of HS-5 BMSCs (10,000 per well)
Source text: (§1) Applicants expanded the application of in vitro compartment-specific bioluminescence imaging assays beyond the MM cells to other tumor models, namely a few leukemic cell lines. Applicants specifically tested luciferase-expressing K562-luc-neo and KU812F-luc-neo leukemic cells against standard anti-leukemia agents, including AraC and Doxo, in the presence vs. absence of HS-5 stromal cells (FIG. 7A and FIG. 7B).

[1] = system: KU812F-luc leukemia cells; experiment: CS-BLI drug sensitivity of KU812F-luc leukemia cells in presence vs absence of HS-5 BMSCs; assay type: cell-based; conditions: presence vs absence of HS-5 BMSCs (10,000 per well)
Source text: In another set of experiments, Applicants tested and observed similar protective/sensitization effect of stroma cell on KU812F-luc cells on various drugs (data not shown).
as §1

[2] = system: MDA-MB-231met-luc-neo cells; experiment: CS-BLI drug sensitivity of MDA-MB-231met-luc-neo cells alone or with HS-5 BMSCs; assay type: cell-based; conditions: MDA-MB-231met-luc-neo alone or with HS-5 BMSCs (10,000/well), 48 hrs
Description: (§2) MDA-MB-231met-luc-neo (FIG. 18A, FIG. 18B), A375-luc-neo (FIG. 18C, FIG. 18D) and FRO-luc-neo (FIG. 18E, FIG. 18F) cells were plated either alone or mixed with HS-5 BMSCs (10,000 /well) and treated the following day. The cultures of tumor cells and their co-cultures with BMSCs were incubated for an additional 48 hrs.

A375-luc-neo cells = experiment: CS-BLI drug sensitivity of A375-luc-neo cells alone or with HS-5 BMSCs; assay type: cell-based; conditions: A375-luc-neo alone or with HS-5 BMSCs (10,000/well), 48 hrs
Description: as §2

FRO-luc-neo cells = experiment: CS-BLI drug sensitivity of FRO-luc-neo cells alone or with HS-5 BMSCs; assay type: cell-based; conditions: FRO-luc-neo alone or with HS-5 BMSCs (10,000/well), 48 hrs
Description: as §2

MM = conditions: cited from earlier work
[3] = system: Multiple myeloma (MM) cells; conditions: cited from earlier work
[4] = system: MM.1S-GFP-luc target cells; experiment: CS-BLI killing of MM.1S-GFP-luc target cells by IL-2 stimulated PBMCs; assay type: cell-based, human; conditions: for effect of concurrent drug exposure of co-culture on activity of PBMCs to kill tumor targets: 2 μM CC5013, 2 μM CC4047, 20 nM PS-341 or 100 nM Dex during co-culture; for effect of concurrent drug exposure of co-culture on activity of PBMCs to kill tumor targets / effect of drug pretreatment of PBMCs on activity of PBMCs to kill tumor targets: MM.1S-GFP-luc targets; for effect of drug pretreatment of PBMCs on activity of PBMCs to kill tumor targets: PBMCs pretreated 24 hrs with IL-2 plus 1 μM CC5013, 1 μM CC4047, 10 nM PS-341 or 50 nM Dexamethasone, washed
Description: (§3) PBMCs were isolated from a healthy donor, stimulated for 24 hrs with 10 ng/mL of IL-2 and then combined in culture with 5000 tumor target cells. The human multiple myeloma line, MM.1S-GFP-luc (FIG. 27A), was used as target cells and combined with PBMCs at 1:1, 1:5, 1:10, 1:20 and 1:40 ratios. The basophilic leukemia line, KU812F-luc-neo (FIG. 27B), was used as target cells and combined with PBMCs from the same donor at 1:1, 1:5, 1:10, 1:20 and 1:40 ratios. Viability of tumor cells was assessed using bioluminescence detection after the addition of luciferin substrate following 4 hours of co-culture with immune effector cells.
(§4) PBMCs were isolated from a healthy donor, stimulated for 24 hrs with IL-2 in the presence of either 1 μM CC5013 (FIG. 29A), 1 μM CC4047 (FIG. 29B), 10 nM PS-341 (FIG. 29C), or 50 nM Dexamethasone (FIG. 29D). PBMCs were washed and combined in culture with MM.1S-GFP-luc target cells at the 1:1, 1:2.5, 1:5, 1:10, 1:20 and 1:40 target to effector ratios.
PBMCs were isolated from a healthy donor, stimulated for 24 hrs with IL-2 in the presence or absence of 1 μM CC4047. MM.1S-GFP-luc cells were cultured in the presence or absence of 1 μM CC4047. PBMCs and MM.1S-GFP-luc cells were washed to remove drug and combined in culture with target MM.1S-GFP-luc target cells, either pretreated with 1 μM CC4047 or without, and combined at 1:1, 1:2.5, 1:5, 1:10, 1:20 and 1:40 target to effector ratios in the absence of drug.
PBMCs were isolated from a healthy donor, stimulated for 24 hrs with IL-2. PBMCs were combined in culture with MM.1S-GFP-luc target cells at the 1:1, 1:2.5, 1:5, 1:10, 1:20 and 1:40 target to effector ratios in the presence or absence of 2 μM CC5013 (FIG. 32A), 2 μM CC4047 (FIG. 32B), 20 nM PS-341 (FIG. 32C), or 100 nM Dex (FIG. 32D) during co-culture.

[5] = system: KU812F-luc-neo target cells; experiment: CS-BLI killing of KU812F-luc-neo target cells by IL-2 stimulated PBMCs; assay type: cell-based; conditions: for effect of concurrent drug exposure of co-culture on activity of PBMCs to kill tumor targets: 2 μM CC5013, 2 μM CC4047, 20 nM PS-341 or 100 nM Dex during co-culture; for effect of drug pretreatment of PBMCs on activity of PBMCs to kill tumor targets: PBMCs pretreated 24 hrs with IL-2 plus 1 μM CC5013, 1 μM CC4047, 10 nM PS-341 or 50 nM Dexamethasone, washed
Description: as §3
as §4, with “with” for “in the presence of”, “30A),” for “29A),”, “30B),” for “29B),”, “30C),” for “29C),”, “30D).” for “29D).”, “KU812F-luc-neo” for “MM.1S-GFP-luc”
PBMCs were isolated from a healthy donor, stimulated for 24 hrs with IL-2. PBMCs were then washed and combined in culture with KU812F-luc-neo target cells at the 1:1, 1:2.5, 1:5, 1:10, 1:20 and 1:40 target to effector ratios in the presence or absence 2 μM CC5013 (FIG. 33A), 2 μM CC4047 (FIG. 33B), 20 nM PS-341 (FIG. 33C), or 100 nM Dex (FIG. 33D).

[6] = system: MM-1R-GFP-luc myeloma cells; experiment: CS-BLI drug sensitivity of MM-1R-GFP-luc cells in presence vs absence of stromal cells; conditions: MM-1R-GFP-luc (Dex-resistant), presence vs absence of HS-5 BMSCs (10,000 per well)
[7] = system: MM-1S-GFP-luc myeloma cells; experiment: CS-BLI drug sensitivity of MM-1S-GFP-luc cells in presence vs absence of stromal cells; assay type: cell-based, human; conditions: presence vs absence of HS-5 BMSCs (10,000 per well)
Description: Luciferin (7.5 mg/mL; Xenogen Corp, Alameda, Calif.) was added at the volume stated in each experiment. Cell viability and the precise cell counts were established by Trypan blue exclusion assay immediately before plating of the cells. Compartment-specific bioluminescence emitted by individual wells of these plates was measured with two different bioluminescence imaging modalities, namely a Xenogen IVIS® Imaging System (FIG. 1A and FIG. 1B) and a standard luminometer plate reader—Luminoskan luminometer (Labsystems, MA) (FIG. 1C). The results with each method were analyzed for the linearity of the bioluminescent signal vs. cell number using the Living Image® software (Xenogen Corp, Alameda Calif.).

SMILES	effect of BMSC co-culture on tumor cell response to drug (protection) (K562-luc leukemia cells)	effect of BMSC co-culture on tumor cell response to drug (protection) [1]	effect of concurrent drug exposure of co-culture on activity of PBMCs to kill tumor targets [4]	effect of drug pretreatment of PBMCs on activity of PBMCs to kill tumor targets [4]	effect of concurrent drug exposure of co-culture on activity of PBMCs to kill tumor targets [5]	effect of drug pretreatment of PBMCs on activity of PBMCs to kill tumor targets [5]	also measured
Cc1cn(-c2cc(NC(=O)c3ccc(C)c(Nc4nccc(-c5cccnc5)n4)c3)cc(C(F)(F)F)c2)cn1 [nilotinib]	do not confer protection	confer protection					
Nc1ccn([C@@H]2O[C@H](CO)[C@@H](O)[C@@H]2O)c(=O)n1 [AraC]	protection was observed	decreased the responsiveness; also recorded: confer protection					effect of BMSC co-culture on tumor cell response to drug (protection) [2]: modest protection; effect of BMSC co-culture on tumor cell response to drug (protection) (A375-luc-neo cells): considerable level of protection; effect of BMSC co-culture on tumor cell response to drug (protection) ([1]; listed as Ara-C): develop stromal-derived resistance; effect of BMSC co-culture on tumor cell response to drug (protection) (FRO-luc-neo cells): no protection
O=C1CCC(N2C(=O)c3ccccc3C2=O)C(=O)N1 (stereo not shown) [thalidomide]							anti-MM activity in vivo (MM): potent; single-agent in vitro anti-MM activity [3]: modest
Nc1cccc2c1CN(C1CCC(=O)NC1=O)C2=O (stereo not shown) [lenalidomide]							anti-MM activity in vivo (MM): potent; single-agent in vitro anti-MM activity [3]: modest
Cc1ccc(NC(=O)c2ccc(CN3CCN(C)CC3)cc2)cc1Nc1nccc(-c2cccnc2)n1 [Imatinib, imatinib]	do not confer protection	confer protection					effect of BMSC co-culture on tumor cell response to drug (protection) (K562-luc leukemia cells; listed as imatinib): do not exhibit such phenotype; effect of BMSC co-culture on tumor cell response to drug (protection) ([1]; listed as imatinib): develop stromal-derived resistance; also recorded: decreased the responsiveness
Nc1cccc2c1C(=O)N(C1CCC(=O)NC1=O)C2=O (stereo not shown) [CC4047]			increased activity	did not have a significant impact; also recorded: no significant increasing in activity	significant difference increasing the activity	did have a significant impact on increasing	effect of drug pretreatment of target myeloma cells on killing by PBMCs ([4]; MM.1S-GFP-luc cells pretreated with 1 μM CC4047, washed): significant increase
Nc1cccc2c1CN(C1CCC(=O)NC1=O)C2=O (stereo not shown) [CC5013]			had an increase in the activity	did not have a significant impact	significant difference increasing the activity	did not have a significant impact	
CC(C)C[C@H](NC(=O)[C@H](Cc1ccccc1)NC(=O)c1cnccn1)B(O)O [PS-341, bortezomib]			decreased activity	did have a significant impact on blocking	significant difference blocking the activity	did have a significant impact on blocking	effect of BMSC co-culture on tumor cell response to drug (protection) [6]: confer no protection; effect of BMSC co-culture on tumor cell response to drug (protection) ([6]; listed as bortezomib): did not abrogate the responsiveness; effect of BMSC co-culture on tumor cell response to drug (protection) ([7]; listed as bortezomib): did not abrogate the responsiveness
CC1=C2C(=O)[C@H]3[C@@H](CC=C4C[C@@H](O)CC[C@@]43C)[C@@H]2CC[C@]12O[C@@H]1C[C@H](C)CN[C@H]1[C@H]2C [11-keto-cyclopamine]							effect of BMSC co-culture on tumor cell response to drug (protection) [6]: conferred protection; effect of BMSC co-culture on tumor cell response to drug (protection) [7]: conferred protection
